From patent US20180042234A1, “FUNGICIDAL PYRAZOLES” (E I DU PONT DE NEMOURS AND COMPANY, priority 2015, published 2018)
Marks after values point to notes of the source that are not given here.

Experiments:
[1] = tested on: Puccinia recondita f. sp. tritici; test: Test A: wheat leaf rust, preventive spray on wheat seedlings, visual disease rating; format: in vivo
Description: (§1) General protocol for preparing test suspensions for Tests A-E: the test compounds were first dissolved in acetone in an amount equal to 3% of the final volume and then suspended at the desired concentration (in ppm) in acetone and purified water (50/50 mix by volume) containing 250 ppm of the surfactant Trem® 014 (polyhydric alcohol esters). The resulting test suspensions were then used in Tests A-E. Spraying a 200 ppm test suspension to the point of run-off on the test plants was the equivalent of a rate of 800 g/ha.
(§2) The test suspension was sprayed to the point of run-off on wheat seedlings. The following day the seedlings were inoculated with a spore suspension of Puccinia recondita f. sp. tritici (the causal agent of wheat leaf rust) and incubated in a saturated atmosphere at 20° C. for 24 h, and then moved to a growth chamber at 20° C. for 7 days, after which time visual disease ratings were made.
(§3) Results for Tests A-E are given in Table A. In the Table, a rating of 100 indicates 100% disease control and a rating of 0 indicates no disease control (relative to the controls). A dash (-) indicates no test results. All results are for 200 ppm except where followed by an asterisk “*” which indicates a 250 ppm test suspension was used or a double asterisk “**” which indicates a 50 ppm test suspension was used.

[2] = tested on: Blumeria graminis f sp. tritici; test: Test D: wheat powdery mildew, preventive spray on wheat seedlings, visual disease rating; format: in vivo
Description: as §1
The test suspension was sprayed to the point of run-off on wheat seedlings. The following day the seedlings were inoculated with a spore dust of Blumeria graminis f sp. tritici, (also known as Erysiphe graminis f sp. tritici, the causal agent of wheat powdery mildew) and incubated in a growth chamber at 20° C. for 8 days, after which time visual disease ratings were made.
as §3

[3] = tested on: Septoria nodorum; test: Test E: Septoria glume blotch, preventive spray on wheat seedlings, visual disease rating; format: in vivo
Description: as §1
as §2, with “Septoria nodorum” for “Puccinia recondita f. sp. tritici”, “Septoria glume blotch)” for “wheat leaf rust)”, “48” for “24”, “9” for “7”
as §3

[4] = tested on: Botrytis cinerea; test: Test C: tomato Botrytis, preventive spray on tomato seedlings, visual disease rating; format: in vivo
Description: as §1
(§4) The test suspension was sprayed to the point of run-off on tomato seedlings. The following day the seedlings were inoculated with a spore suspension of Botrytis cinerea (the causal agent of tomato Botrytis) and incubated in a saturated atmosphere at 20° C. for 48 h, and then moved to a growth chamber at 24° C. for 3 days, after which time visual disease ratings were made.
as §3

[5] = tested on: Septoria tritici; test: Test B: wheat leaf blotch, preventive spray on wheat seedlings, visual disease rating; format: in vivo
Description: as §1
as §4, with “wheat” for “tomato”, “Septoria tritici” for “Botrytis cinerea”, “wheat leaf blotch)” for “tomato Botrytis)”, “24°” for “20°”, “20°” for “24°”, “19” for “3”
as §3

[6] = 200 ppm test suspension, 100 = 100% disease control, 0 = no control

Row | Structure (SMILES) | Test A disease control rating [1, 6] [%] | Test D disease control rating ([2]; 200 ppm test suspension) [%] | Test E disease control rating ([3]; 200 ppm test suspension) [%] | Test C disease control rating ([4]; 200 ppm test suspension) [%] | Test B disease control rating ([5]; 200 ppm test suspension) [%] | Test A disease control rating ([1]; 250 ppm test suspension (*)) | Test D disease control rating ([2]; 250 ppm test suspension (*)) | Test C disease control rating ([4]; 250 ppm test suspension (*)) | melting point [°C] | Test B disease control rating ([5]; 250 ppm test suspension (*)) | Test E disease control rating ([3]; 250 ppm test suspension (*))
1 | CCCCCCCCc1c(C)nn(C)c1Nc1ccc(F)cc1 [Compound 1] | 41 | 63 | 0 | 0 | 0 |  |  |  |  |  | 
2 | CCCCCCCCc1c(C)nn(C)c1Nc1ccc(F)cc1Cl [Compound 2] | 0 | 0 | 0 | 0 | 0 |  |  |  |  |  | 
3 | Cc1nn(C)c(Nc2c(F)cc([N+](=O)[O-])cc2F)c1C1=CCCCC1 [Compound 4] | 32 | 0 | 0 | 92 | 93 |  |  |  |  |  | 
4 | Cc1nn(C)c(Nc2c(F)cc(N)cc2F)c1C1=CCCCC1 [Compound 5] | 0 | 0 | 0 | 0 | 1 |  |  |  |  |  | 
5 | Cc1nn(C)c(Nc2c(F)cc(Cl)cc2F)c1C1=CCCCC1 [Compound 6, N-(4-chloro-2,6-difluorophenyl)-4-(1-cyclohexen-1-yl)-1,3-dimethyl-1H-pyrazol-5-amine] | 19 | 0 | 0 | 98 | 84 |  |  |  |  |  | 
6 | CCC(=O)c1c(C)nn(C)c1Oc1c(F)cccc1F [Compound 7] | 0 | 0 | 0 | 0 | 62 |  |  |  |  |  | 
7 | Cc1nn(C)c(C(O)c2ccc(F)cc2Cl)c1C1CCCCC1 (stereo not drawn) [Compound 11, α-(2-chloro-4-fluorophenyl)-4-cyclohexyl-1,3-dimethyl-1H-pyrazole-5-methanol] |  |  |  |  |  | 86* % | 93* % | 24* % | 171 to 173 | 100* % | 
8 | Cc1nn(C)c(Nc2ccc(F)cc2Cl)c1C1=CCC(C#N)CC1 (centres unmarked) [Compound 13] |  |  |  |  |  | 67* % | 13* % | 79* % |  | 97* % | 0* %
9 | Cc1nn(C)c(Nc2ccc(F)cc2)c1C1CCC(C)(C)CC1 [Compound 14] |  |  |  |  |  | 67* % | 27* % | 0* % |  | 33* % | 62* %
10 | Cc1nn(C)c(Nc2ccc(F)cc2F)c1C1CCC(C)CC1 (centres unmarked) [Compound 16] |  |  |  |  |  | 53* % | 97* % | 19* % |  | 0* % | 19* %
11 | CC(=NO)c1c(C)nn(C)c1Nc1ccc(F)cc1Cl [Compound 34] |  |  |  |  |  | 28* % | 64* % | 0* % |  | 76* % | 0* %
12 | C=C(C)c1c(C)nn(C)c1Nc1c(F)cc([N+](=O)[O-])cc1F [Compound 36] |  |  |  |  |  | 55* % | 27* % | 0* % |  | 88* % | 0* %
13 | Cc1nn(C)c(Nc2c(F)cc(Cl)cc2F)c1C1=CCCC1 [Compound 43] | 68 | 0 | 0 | 0 | 92 |  |  |  |  |  | 
14 | CCC(O)(CC)c1c(C)nn(C)c1Oc1c(F)cccc1F [Compound 44] | 0 | 43 | 0 | 3 | 15 |  |  |  |  |  | 
15 | CCCON=C(CC)c1c(C)nn(C)c1Oc1c(F)cccc1F [Compound 45] | 0 | 0 | 0 | 0 | 3 |  |  |  |  |  | 
16 | Cc1nn(C)c(Nc2c(F)cc(Cl)cc2F)c1C1CCCCC1 [Compound 46, N-(4-chloro-2,6-difluorophenyl)-4-cyclohexyl-1,3-dimethyl-1H-pyrazol-5-amine] | 92 | 98 | 0 | 95 | 99 |  |  |  |  |  | 
17 | CCC(=NO)c1c(C)nn(C)c1Oc1c(F)cccc1F [Compound 47] | 0 |  | 0 | 0 | 81 |  | 89* % |  |  |  | 
18 | CCC(=NOC(C)C)c1c(C)nn(C)c1Oc1c(F)cccc1F [Compound 48] | 0 | 0 | 0 | 18 | 32 |  |  |  |  |  | 
19 | CCC(=NOC)c1c(C)nn(C)c1Oc1c(F)cccc1F [Compound 49] | 0 | 0 | 0 | 39 | 16 |  |  |  |  |  | 
20 | CCON=C(CC)c1c(C)nn(C)c1Oc1c(F)cccc1F [Compound 50] | 0 | 0 | 0 | 3 | 40 |  |  |  |  |  | 
21 | CC=C(CC)c1c(C)nn(C)c1Oc1c(F)cccc1F [Compound 51] | 0 | 0 | 0 | 15 | 0 |  |  |  |  |  | 
22 | Cc1nn(C)c(Nc2c(F)cc(Cl)cc2F)c1C1CCCC1 [Compound 52, N-(4-chloro-2,6-difluorophenyl)-4-cyclopenyl-1,3-dimethyl-1H-pyrazol-5-amine] | 89 | 98 | 0 | 96 | 99 |  |  |  |  |  | 
23 | Cc1nn(C)c(Nc2ccc(F)cc2F)c1C1CCC(C#N)CC1 (centres unmarked) [Compound 63] |  |  |  |  |  | 86* % | 96* % | 0* % |  | 55* % | 
24 | Cc1nn(C)c(Nc2ccc(F)cc2)c1C1CCC(C)CC1 (centres unmarked) [Compound 64] |  |  |  |  |  | 55* % | 96* % | 0* % |  | 58* % | 
25 | Cc1nn(C)c(Nc2ccc(F)cc2Cl)c1C1CCC(C#N)CC1 (centres unmarked) [Compound 65] |  |  |  |  |  | 55* % | 13* % | 0* % |  | 54* % | 
